Experiment: Toxicity in brine shrimps larvae assessed as mortality at 10 ug/ml after 24 hrs
Type: organism-based
Conditions: artemia, brine shrimp larvae; read-out: Activity

Compound	mortality at 24 h, 10 ug/ml [%]
C[C@H]1C/C=C/[C@@H](O)[C@@H](O)CC/C=C/c2cc(O)cc(O)c2C(=O)O1 [AIGIALOMYCIN D]	76.7
C[C@H](O)C/C=C/CCCCc1cc2cc(O)cc(O)c2c(=O)o1 [FUSARIUMIN]	78.2
C[C@@H]1C[C@@H](O)/C=C\[C@H](O)CCC(=O)Cc2c(Cl)c(O)cc(O)c2C(=O)O1 [POCHONIN N]	82.8

Reference: ChEMBL document CHEMBL1681773, “Toxic polyketides produced by Fusarium sp., an endophytic fungus isolated from Melia azedarach” (Bioorg Med Chem Lett, 2011)
